Source: the Deep4Chem optical property database
Values belong to the molecule of their own block, whether it stands above or below them.

Test: solvent given as SMILES

Structure (SMILES): CC1(C)c2ccccc2N(c2ccc(-c3nnc(-c4cc(-c5ccccc5)c(-c5ccccc5)c(-c5ccccc5)c4-c4ccccc4)o3)cc2)c2ccccc21
fluorescence lifetime (in c1ccc(-n2c(-c3c(-n4c5ccccc5c5ccccc54)cccc3-n3c4ccccc4c4ccccc43)nc3ccccc32)cc1): 5.5 ns

Structure (SMILES): CC(C)[Si]1(C(C)C)c2ccccc2-c2ccc(N(C)C)cc21
fluorescence lifetime (in C1CCCCC1): 6.5 ns
fluorescence lifetime (in ClCCl): 4 ns

Structure (SMILES): N#Cc1ccc2c(c1)CCc1nc(-c3ccc([N+](=O)[O-])cc3)c3c(c1-2)CCc1cc(C#N)ccc1-3
fluorescence lifetime (in C1CCOC1): 1.36 ns
fluorescence lifetime (in CC#N): 1.11 ns
fluorescence lifetime (in CCCCCC): 0.64 ns
fluorescence lifetime (in CCOC(C)=O): 1.11 ns
fluorescence lifetime (in CO): 0.84 ns
fluorescence lifetime (in CS(C)=O): 1.24 ns
fluorescence lifetime (in Cc1ccccc1): 0.88 ns
fluorescence lifetime (in ClCCl): 1.46 ns

Structure (SMILES): C[NH+](C)c1c2ccccc2cc2ccccc12
fluorescence lifetime (in O): 17.3 ns

Structure (SMILES): c1ccc(Cn2c3sccc3c3c4nsnc4c4c5ccsc5n(Cc5ccccc5)c4c32)cc1
fluorescence lifetime (in Cc1ccccc1): 13.5 ns
fluorescence lifetime (in ClCCl): 16.2 ns

Structure (SMILES): CC1=N/C(=C\c2cccc(N(C)C)c2)C(=O)N1C
fluorescence lifetime (in C1CCOC1): 15.3 ns
fluorescence lifetime (in CC#N): 8.6 ns
fluorescence lifetime (in CCCCCC): 22.5 ns

Structure (SMILES): Cc1nc2c(ccc3ccc(O)cc32)oc1=O
fluorescence lifetime (in c1ccccc1): 3.9 ns

Structure (SMILES): COC(=O)C12N=N[C@](C(=O)OC)(C3C4CCC(C4)C31)[C@@]1(C)C[C@@H]21 (stereo not given in full)
fluorescence lifetime (in CC#N): 116 ns

Structure (SMILES): c1ccc2c(c1)Sc1ccc(-n3c4ccccc4c4ccccc43)cc1S2
fluorescence lifetime (in CC1CCCCC1): 9.4 ns
fluorescence lifetime (in O=P(c1ccccc1)(c1ccccc1)c1ccccc1Oc1ccccc1P(=O)(c1ccccc1)c1ccccc1): 3.5 ns
fluorescence lifetime (in c1cc(-c2cccc(-n3c4ccccc4c4ccccc43)c2)cc(-n2c3ccccc3c3ccccc32)c1): 5.1 ns

Structure (SMILES): C(#Cc1cc2ccc3cccc4ccc(c1)c2c34)c1ccccc1
fluorescence lifetime (in Cc1ccccc1): 71 ns

Structure (SMILES): CN1CCCc2cc3c(C(F)(F)F)cc(=O)oc3cc21
fluorescence lifetime (in C1CCCCC1): 4.2 ns
fluorescence lifetime (in CC#N): 5.6 ns
fluorescence lifetime (in CCO): 5.1 ns

Structure (SMILES): CC(C)(C)C#Cc1cc2c(C#CC(C)(C)C)c(C#CC(C)(C)C)c3cc(C#CC(C)(C)C)cc4c(C#CC(C)(C)C)c(C#CC(C)(C)C)c(c1)c2c34
fluorescence lifetime (in ClCCl): 22.3 ns

Structure (SMILES): COc1ccc(/C=C/C2=CC(/C=C/c3ccc(OC)cc3)=[O+][B-](F)(F)O2)cc1
fluorescence lifetime (in CC#N): 1.55 ns
fluorescence lifetime (in CC(C)=O): 1.49 ns
fluorescence lifetime (in CCOC(C)=O): 0.88 ns
fluorescence lifetime (in CCOCC): 0.7 ns
fluorescence lifetime (in ClC(Cl)(Cl)Cl): 0.5 ns
fluorescence lifetime (in ClCCl): 1.3 ns

Structure (SMILES): CCCCOC(=O)c1cc(Cl)c2c3c(Cl)cc4c5c(cc(Cl)c(c6c(Oc7ccc(C(=O)OC)cc7)cc(C(=O)OCCCC)c1c26)c53)C(=O)N(c1c(C(C)C)cccc1C(C)C)C4=O
fluorescence lifetime (in Cc1ccccc1): 6.09 ns

Structure (SMILES): FC(F)(F)c1ccc(/C=C/c2ccc(-c3nnc(-c4ccc(-c5cc6ccccc6s5)cc4)o3)cc2)cc1
fluorescence lifetime (in Cc1ccccc1): 0.57 ns
fluorescence lifetime (in ClC(Cl)Cl): 0.7 ns

Structure (SMILES): O=Cc1ccc(C#CC(C#Cc2ccc(C=O)o2)=Cc2ccc(C=C(C#Cc3ccc(C=O)o3)C#Cc3ccc(C=O)o3)s2)o1
fluorescence lifetime (in ClC(Cl)Cl): 0.4 ns

Structure (SMILES): COC(=O)/C=C/c1ccc2ccc3cccc4ccc1c2c34
fluorescence lifetime (in C1CCOC1): 2.8 ns
fluorescence lifetime (in CC#N): 2.4 ns
fluorescence lifetime (in CC(C)=O): 2.6 ns

Structure (SMILES): CNC1=C2C=CC=[N+]2[B-](F)(F)n2cccc21
fluorescence lifetime (in C1CCCCC1): 4.67 ns
fluorescence lifetime (in CC(C)=O): 0.726 ns
fluorescence lifetime (in CCO): 0.774 ns
fluorescence lifetime (in CCOC(C)=O): 2.04 ns
fluorescence lifetime (in CO): 0.523 ns
fluorescence lifetime (in OCC(F)(F)F): 1.4 ns

Structure (SMILES): C=Cc1cc(OC)cc(OC)c1
fluorescence lifetime (in C1CCCCC1): 3.8 ns
fluorescence lifetime (in CC#N): 6.9 ns

Structure (SMILES): C(=C\c1ccc(/C=C/c2ccc(N(c3ccccc3)c3ccccc3)cc2)c2nsnc12)/c1ccc(N(c2ccccc2)c2ccccc2)cc1
fluorescence lifetime (in C1CCOC1): 4.53 ns
fluorescence lifetime (in CCOC(C)=O): 4.74 ns
fluorescence lifetime (in CN(C)C=O): 2.75 ns
fluorescence lifetime (in Cc1ccccc1): 4.29 ns
fluorescence lifetime (in ClC(Cl)Cl): 4.21 ns
fluorescence lifetime (in ClCCl): 4.1 ns

Structure (SMILES): Cc1nc(-c2ccc(N3c4ccccc4C(c4ccccc4)(c4ccccc4)c4ccccc43)cc2)cc(-c2ccc(N3c4ccccc4C(c4ccccc4)(c4ccccc4)c4ccccc43)cc2)n1
fluorescence lifetime (in O=P(c1ccccc1)(c1ccccc1)c1ccc2oc3ccc(P(=O)(c4ccccc4)c4ccccc4)cc3c2c1): 11 ns

Continued, in another order:

fluorescence lifetime (in CCOC(C)=O): 3.8 ns
fluorescence lifetime (in CS(C)=O): 4.5 ns
Structure (SMILES): CC(=O)Nc1ccc2c3cccc4cccc(c5cccc1c52)c43

fluorescence lifetime (in CCCCC): 0.72 ns
fluorescence lifetime (in CCCCCC): 0.67 ns
fluorescence lifetime (in CCCCCCC): 0.67 ns
fluorescence lifetime (in CCCCCCCC): 0.7 ns
fluorescence lifetime (in CCCCCCCCC): 0.7 ns
fluorescence lifetime (in CCCCCCCCCC): 0.71 ns
fluorescence lifetime (in CCCCCCCCCCCC): 0.74 ns
fluorescence lifetime (in CCCCCCCCCCCCC): 0.76 ns
fluorescence lifetime (in CCCCCCCCCCCCCCC): 0.75 ns
fluorescence lifetime (in CCCCCCCCCCCCCCCC): 0.75 ns
fluorescence lifetime (in CCCCCCCCCCO): 0.8 ns
fluorescence lifetime (in CCCCCCCCCO): 0.74 ns
fluorescence lifetime (in CCCCCCCCO): 0.75 ns
fluorescence lifetime (in CCCCCCCO): 0.75 ns
fluorescence lifetime (in CCCCCCO): 0.76 ns
fluorescence lifetime (in CCCCCO): 0.76 ns
fluorescence lifetime (in CCCCO): 0.78 ns
fluorescence lifetime (in CCCO): 0.8 ns
fluorescence lifetime (in CCO): 0.8 ns
fluorescence lifetime (in CO): 0.78 ns
Structure (SMILES): CCC1(CC)c2cc(-c3ccc4c(c3)C(CC)(CC)c3cc(C(C)(C)C)ccc3-4)ccc2-c2ccc(-c3ccc4c(c3)C(CC)(CC)c3cc(C(C)(C)C)ccc3-4)cc21

fluorescence lifetime (in ClC(Cl)Cl): 1.79 ns
Structure (SMILES): Cc1ccc(C2=Cc3ccc4ccccc4[n+]3[B-](F)(F)O2)cc1

fluorescence lifetime (in CCCCCC): 52.9 ns
fluorescence lifetime (in CO): 85.7 ns
fluorescence lifetime (in ClCCl): 40.3 ns
Structure (SMILES): CC(C)c1ccc2ccc3c(C(C)C)ccc4ccc1c2c43

fluorescence lifetime (in CC#N): 2.9 ns
fluorescence lifetime (in CCCCCC): 3.24 ns
fluorescence lifetime (in CO): 3.2 ns
fluorescence lifetime (in ClC(Cl)Cl): 2.41 ns
Structure (SMILES): c1cc2ccc3cccc4c(-c5cc(-c6nccs6)nc(-c6nccs6)c5)cc(c1)c2c34

fluorescence lifetime (in ClCCl): 2.5 ns
Structure (SMILES): c1cc2ccc3ccc(OP4(Oc5ccc6ccc7cccc8ccc5c6c78)=NP(Oc5ccc6ccc7cccc8ccc5c6c78)(Oc5ccc6ccc7cccc8ccc5c6c78)=NP(Oc5ccc6ccc7cccc8ccc5c6c78)(Oc5ccc6ccc7cccc8ccc5c6c78)=N4)c4ccc(c1)c2c34

fluorescence lifetime (in CC1CCCO1): 100 ns
Structure (SMILES): O=S1(=O)c2ccc(-c3ccc4c(c3)c3ccccc3n4-c3ccccc3)cc2C2(c3cc(-c4ccc5c(c4)c4ccccc4n5-c4ccccc4)ccc31)c1cc(-c3ccc4c(c3)c3ccccc3n4-c3ccccc3)ccc1S(=O)(=O)c1ccc(-c3ccc4c(c3)c3ccccc3n4-c3ccccc3)cc12

fluorescence lifetime (in CCO): 3.5 ns
fluorescence lifetime (in ClCCl): 6.9 ns
Structure (SMILES): c1ccc(-c2c3ccccc3c(-c3cncnc3)c3ccccc23)cc1

fluorescence lifetime (in CN(C)C=O): 1.48 ns
Structure (SMILES): CCCCCCCCC1(CCCCCCCC)c2cc(-c3ccc(C(=O)OC)cc3)ccc2-c2ccc(-c3ccc(C(=O)OC)cc3)cc21

fluorescence lifetime (in CCO): 0.43 ns
fluorescence lifetime (in ClC(Cl)Cl): 3.44 ns
fluorescence lifetime (in O): 0.13 ns
Structure (SMILES): CCOC(=O)c1ccccc1-c1c2ccc(=[N+](CC)CC)cc-2oc2c1c(=O)oc1c3c4c(cc12)CCCN4CCC3

fluorescence lifetime (in ClCCl): 17.1 ns
Structure (SMILES): CCN(CC)c1ccc2c(c1)oc(=O)c1cc3c(C)nn(-c4ccccc4)c3nc12

fluorescence lifetime (in C1COCCO1): 0.78 ns
Structure (SMILES): c1ccc(-c2nc(-c3ccc(-c4ccc(-c5ccc(-c6nc(-c7ccccc7)c(-c7ccccc7)o6)cc5)cc4)cc3)oc2-c2ccccc2)cc1

fluorescence lifetime (in CCCCCCCCO): 0.48 ns
fluorescence lifetime (in CCCO): 0.18 ns
fluorescence lifetime (in CCO): 0.11 ns
fluorescence lifetime (in CO): 0.09 ns
fluorescence lifetime (in ClC(Cl)Cl): 0.46 ns
fluorescence lifetime (in ClCCl): 0.31 ns
Structure (SMILES): CN(C)c1ccc(/C=C/c2cc[n+](CCCOCC(COCCC[n+]3ccc(/C=C/c4ccc(N(C)C)cc4)cc3)(COCCC[n+]3ccc(/C=C/c4ccc(N(C)C)cc4)cc3)COCCC[n+]3ccc(/C=C/c4ccc(N(C)C)cc4)cc3)cc2)cc1

fluorescence lifetime (in ClC(Cl)Cl): 5.4 ns
Structure (SMILES): CCCCCCN1C(=O)C(c2ccc(-n3c4ccccc4c4ccccc43)cc2)=C(c2ccc(-n3c4ccccc4c4ccccc43)cc2)C1=O
fluorescence lifetime (in c1ccc2c(c1)c1ccccc1n2-c1ccc(-c2ccc(-n3c4ccccc4c4ccccc43)cc2)cc1): 4 ns

fluorescence lifetime (in C1CCOC1): 2.42 ns
fluorescence lifetime (in C1COCCO1): 2.33 ns
fluorescence lifetime (in CC#N): 2.24 ns
fluorescence lifetime (in CC(C)O): 1.98 ns
fluorescence lifetime (in CCO): 1.78 ns
fluorescence lifetime (in CCOC(C)=O): 2.35 ns
fluorescence lifetime (in CN(C)C=O): 2.45 ns
fluorescence lifetime (in CO): 1.64 ns
fluorescence lifetime (in CS(C)=O): 2.45 ns
fluorescence lifetime (in O): 3.17 ns
Structure (SMILES): NS(=O)(=O)c1ccc(N2N=C(c3ccc(O)cc3)CC2c2ccc(F)cc2)cc1 (stereo not given)

fluorescence lifetime (in ClCCl): 6.19 ns
Structure (SMILES): CCCCCCCCCCCCN1C(=O)c2c(c3ccc4cc(-c5ccc(-c6ccccc6)cc5)c(OC)cc4c3c3c2ccc2cc(-c4ccc(-c5ccccc5)cc4)c(OC)cc23)C1=O

fluorescence lifetime (in C1CCOC1): 7 ns
Structure (SMILES): c1ccc(/C(=C(\c2ccccc2)c2ccccc2-c2ccc(-c3ccccc3)cc2)c2ccccc2-c2ccc(-c3ccccc3)cc2)cc1

fluorescence lifetime (in C1CCOC1): 1 ns
Structure (SMILES): CN(C)c1ccc(C(=Cc2ccc(/C=C/c3ccc(C#N)cc3)cc2)c2ccc(N(C)C)cc2)cc1

fluorescence lifetime (in CC#N): 5.1 ns
Structure (SMILES): CC1=CC(/C=C/c2ccc([N+](C)(C)C)cc2)=[N+]2C1=C(c1ccc(I)cc1)c1c(C)cc(/C=C/c3ccc([N+](C)(C)C)cc3)n1[B-]2(F)F

fluorescence lifetime (in ClCCl): 6.44 ns
Structure (SMILES): CCCCCCCCCCCCN1C(=O)c2c(c3ccc4cc(-c5ccc(OC)cc5)c(OC)cc4c3c3c2ccc2cc(-c4ccc(OC)cc4)c(OC)cc23)C1=O

fluorescence lifetime (in ClCCl): 1.17 ns
Structure (SMILES): c1ccc(N2N=C(c3c4ccccc4cc4ccccc34)CC2c2ccc3ccc4cccc5ccc2c3c45)cc1 (stereo not given)

fluorescence lifetime (in CCCCC): 0.74 ns
fluorescence lifetime (in CCCCCC): 0.69 ns
fluorescence lifetime (in CCCCCCC): 0.7 ns
fluorescence lifetime (in CCCCCCCC): 0.7 ns
fluorescence lifetime (in CCCCCCCCC): 0.72 ns
fluorescence lifetime (in CCCCCCCCCC): 0.79 ns
fluorescence lifetime (in CCCCCCCCCCCC): 0.78 ns
fluorescence lifetime (in CCCCCCCCCCCCC): 0.82 ns
fluorescence lifetime (in CCCCCCCCCCCCCCC): 0.81 ns
fluorescence lifetime (in CCCCCCCCCCCCCCCC): 0.82 ns
fluorescence lifetime (in CCCCCCCCCCO): 0.79 ns
fluorescence lifetime (in CCCCCCCCCO): 0.87 ns
fluorescence lifetime (in CCCCCCCCO): 0.84 ns
fluorescence lifetime (in CCCCCCCO): 0.8 ns
fluorescence lifetime (in CCCCCCO): 0.81 ns
fluorescence lifetime (in CCCCCO): 0.77 ns
fluorescence lifetime (in CCCCO): 0.79 ns
fluorescence lifetime (in CCCO): 0.72 ns
fluorescence lifetime (in CCO): 0.82 ns
fluorescence lifetime (in CO): 0.8 ns
Structure (SMILES): CCC1(CC)c2cc(-c3ccc(-c4ccc5c(c4)C(CC)(CC)c4cc(C(C)(C)C)ccc4-5)cc3)ccc2-c2ccc(C(C)(C)C)cc21

fluorescence lifetime (in ClCCl): 5.8 ns
Structure (SMILES): COc1ccccc1C1=[N+]2C(=C(c3ccccc3)c3c4ccccc4c(-c4ccccc4OC)n3[B-]2(F)F)c2ccccc21
